Values belong to the compound of their own block, whether it stands above or below them.
Columns and labels:
[1] = Inhibition of Ornithorhynchus anatinus GLP-1
Glucagon-1 [2] = biological target: T1, Glucagon-1 (Xenopus laevis, UniProt O42143); test: Inhibition of Xenopus laevis GLP-1A (1 to 37 residues)
T1 sequence (O42143 whole entry): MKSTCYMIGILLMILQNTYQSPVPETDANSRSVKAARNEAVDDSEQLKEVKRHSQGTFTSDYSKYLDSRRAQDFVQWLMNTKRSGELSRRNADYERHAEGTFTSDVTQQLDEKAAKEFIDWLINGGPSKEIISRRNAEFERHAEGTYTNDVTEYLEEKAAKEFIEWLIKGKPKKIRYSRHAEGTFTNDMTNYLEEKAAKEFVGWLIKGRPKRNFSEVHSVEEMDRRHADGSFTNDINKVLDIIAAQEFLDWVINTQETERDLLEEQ

Glucagon-1 [3] = biological target: T1, Glucagon-1; test: Inhibition of Xenopus laevis GLP-1B (1 to 32 residues)
Glucagon-1 [4] = biological target: T1, Glucagon-1; test: Inhibition of Xenopus laevis GLP-1C (1 to 30 residues)

Compound: H-HFDGVYTDYFSRYLEEKATNEFIDWLLKGQE-OH
IC50 [1]: 7.4 nM

Compound: CC[C@H](C)[C@H](NC(=O)[C@H](CC(C)C)NC(=O)[C@H](Cc1c[nH]c2ccccc12)NC(=O)[C@H](CC(=O)O)NC(=O)[C@@H](NC(=O)[C@H](Cc1ccccc1)NC(=O)[C@H](CCC(=O)O)NC(=O)[C@H](CCCCN)NC(=O)[C@H](C)NC(=O)[C@H](C)NC(=O)[C@H](CCCCN)NC(=O)[C@H](CCC(=O)O)NC(=O)[C@H](CC(=O)O)NC(=O)[C@H](CC(C)C)NC(=O)[C@H](CCC(N)=O)NC(=O)[C@H](CCC(N)=O)NC(=O)[C@@H](NC(=O)[C@@H](NC(=O)[C@H](CC(=O)O)NC(=O)[C@H](CO)NC(=O)[C@@H](NC(=O)[C@H](Cc1ccccc1)NC(=O)[C@@H](NC(=O)CNC(=O)[C@H](CCC(=O)O)NC(=O)[C@H](C)NC(=O)[C@@H](N)Cc1c[nH]cn1)[C@@H](C)O)[C@@H](C)O)C(C)C)[C@@H](C)O)[C@@H](C)CC)C(=O)N[C@@H](CC(N)=O)C(=O)NCC(=O)NCC(=O)N1CCC[C@H]1C(=O)N[C@@H](CO)C(=O)N[C@@H](CCCCN)C(=O)N[C@@H](CCC(=O)O)C(=O)N[C@H](C(=O)N[C@H](C(=O)N[C@@H](CO)C(=O)O)[C@@H](C)CC)[C@@H](C)CC
IC50 (Glucagon-1 [2]): 12.7 nM

Compound: H-HSEGTFTNDVTRLLEEKATSEFIAWLLKGLE-OH
IC50 [1]: 7.4 nM

Further lines, results first:

IC50 (Glucagon-1 [3]): 2.9 nM
Compound: CC[C@H](C)[C@H](NC(=O)[C@H](CC(C)C)NC(=O)[C@H](Cc1c[nH]c2ccccc12)NC(=O)[C@H](CCC(=O)O)NC(=O)[C@@H](NC(=O)[C@H](Cc1ccccc1)NC(=O)[C@H](CCC(=O)O)NC(=O)[C@H](CCCCN)NC(=O)[C@H](C)NC(=O)[C@H](C)NC(=O)[C@H](CCCCN)NC(=O)[C@H](CCC(=O)O)NC(=O)[C@H](CCC(=O)O)NC(=O)[C@H](CC(C)C)NC(=O)[C@H](Cc1ccc(O)cc1)NC(=O)[C@H](CCC(=O)O)NC(=O)[C@@H](NC(=O)[C@@H](NC(=O)[C@H](CC(=O)O)NC(=O)[C@H](CC(N)=O)NC(=O)[C@@H](NC(=O)[C@H](Cc1ccc(O)cc1)NC(=O)[C@@H](NC(=O)CNC(=O)[C@H](CCC(=O)O)NC(=O)[C@H](C)NC(=O)[C@@H](N)Cc1c[nH]cn1)[C@@H](C)O)[C@@H](C)O)C(C)C)[C@@H](C)O)[C@@H](C)CC)C(=O)N[C@@H](CCCCN)C(=O)NCC(=O)N[C@@H](CCCCN)C(=O)N1CCC[C@H]1C(=O)N[C@@H](CCCCN)C(=O)O

IC50 (Glucagon-1 [4]): 43.4 nM
Compound: H-HAEGTFTNDMTNYLEEKAAKEFVGWLIKGRPK-OH

Source: ChEMBL document CHEMBL6083179, “Glucagon-like peptide-1 analogs: Miracle drugs are blooming?” (Eur J Med Chem, 2024)
